# Test results: patent US20220041667A1, “TARGETING OF MAKAP-PDE4D3 COMPLEXES IN NEURODEGENERATIVE DISEASE” (The Board of Trustees of the Leland Stanford Junior …, priority 2018, published 2022)
# B1: mAKAP-SR-GFP: GFP-tagged fragment encoding the mAKAP spectrin-repeat domains (amino acid residues 586-1286) (protein)
# chain: GSDSIKSPVPLLSKNKSQKSSPPAPCHATQNGQVVEAWYGSDEYLALPSHLKQTEVLALKLESLTKLLPQKPRGETIQDIDDWELSEMNSDSEIYPTYHIKKKHTRLGTVSPSSSSDIASSLGESIESGPLSDILSDEDLCLPLSSVKKFTDEKSERPSSSEKNESHSATRSALIQKLMHDIQHQENYEAIWERIEGFVNKLDEFIQWLNEAMETTENWTPPKAETDSLRLYLETHLSFKLNVDSHCALKEAVEEEGHQLLELVVSHKAGLKDTLRMIASQWKELQRQIKRQHSWILRALDTIKAEILATDVSVEDEEGTGSPKAEVQLCHLETQRDAVEQMSLKLYSEQYTSGSKRKEEFANMSKAHAEGSNGLLDFDSEYQELWDWLIDMESLVMDSHDLMMSEEQQQHLYKRYSVEMSIRHLKKSELLSKVEALKKGGLSLPDDILEKVDSINEKWELLGKTLREKIQDTIAGHSGSGPRDLLSPESGSLVRQLEVRIKELKRWLRDTELFIFNSCLRQEKEGTSAEKQLQYFKSLCREIKQRRRGVASILRLCQHLLDDRDTCNLNADHQPMQLIIVNLERRWEAIVMQAVQWQTRLQKKMGKESETLNVIDPGLMDLNGMSEDALEWDETDISNKLISVHEESNDLDQDPEPMLPAVKLEETHHKDSGYEEEAGDCGGSPYTSNITAPSSPHIYQV
# modifications: left off: large carriers
# What was measured:
# [1] = molecular target: PKA (protein kinase A, in Cos-7 cells); test: cell-based or functional assay
# [2] = test system: hippocampal neurons; test: Neurite extension assay (length of longest neurite) in primary hippocampal neurons; format: cell-based, rat; conditions: for effect on neurite extension (pharmacological induction): hippocampal neurons, 40 mM KCl, 10 μM FSK, 100 μM IBMX, 20 μM milrinone or 10 μM rolipram for 2 days
# Protocol: Primary rat hippocampal neurons: Hippocampal cultures were prepared from Sprague Dawley rat embryonic day 18 embryos. Briefly, the rat hippocampal CA1-CA3 region was dissected in PBS medium with 10 mM D-glucose and digested with 0.05% trypsin-EDTA in PBS with 11 mM D-glucose for 30 min at 37° C. The dissociated tissues were centrifuged at 250 g for 2 min and then triturated with fire polished glass pipet in Hank's balanced salt solution (HBSS) with calcium and magnesium in plating medium (10% v/v horse serum in DMEM). Dissociated neurons were plated on nitric acid-treated 25-mm cover glass coated with poly-L-lysine in plating medium. Four hours after plating, the medium was replaced with maintenance medium supplemented with 1% N2, 2% B27 (Invitrogen, Carlsbad, Calif., USA), 5 mM D-glucose, 1 mM sodium pyruvate. Four days later, 4 μM arabinosyl cytosine was added to inhibit glial proliferation and the neurons were either transfected with JPEI or infected with adenovirus.
# Live cell imaging was performed 36-72 h after transfection/infection as described below. For neurite extension assays, the cells were cultured for two days in DMEM with 1 μg/ml chicken egg albumin and 1 mM sodium pyruvate. 40 mM KCl, 10 μM FSK, 100 μM IBMX, 20 μM Milrinone, 10 μM Rolipram were included as indicated. Two days later, the neurons were fixed and stained with antibodies. Nuclei were counter stained with DAPI and SlowFade Gold antifade solution (Molecular Probes) was added before coverslip mounting. Images were acquired with IPLab or Slidebook 6 by wide-field microscopy (Leica DMI 6000B or Zeiss Axio Observer 7) and processed with Adobe PhotoShop CSS 12.1. The length of the longest neurite for ˜15 neurons average per condition was measured for each experiment with ImageJ with Simple Neurite Tracer plugin. Other neuronal images were acquired using a Zeiss 880 confocal microscope.
Molecule,effect on neurite extension (pharmacological induction) [2],also measured
mAKAPα WT (N-terminally myc-tagged rat mAKAPα) (from UniProt Q9WVC7 1-2314),,amplitude of PN-AKAR4 FRET transient after FSK pulse in Cos-7 cells [1]: 50%
"CC(C)Cn1c(=O)n(C)c(=O)c2[nH]cnc21 [IBMX, 3-isobutyl-1-methylxanthine]",induced neurite extension,
[Cl-].[K+] [KCl],induced neurite extension,increase in axon extension due to KCl depolarization alone ([2]; GFP-expressing hippocampal neurons): 29%; increase in axon extension due to KCl depolarization alone ([2]; mCherry-nesprin-expressing hippocampal neurons): 37%
COc1ccc(C2CNC(=O)C2)cc1OC1CCCC1 (centres unmarked) [rolipram],induced neurite extension,
Cc1[nH]c(=O)c(C#N)cc1-c1ccncc1 [milrinone],no effect on neurite growth,
B1,,"effect on axon outgrowth (longest neurite length) ([2]; hippocampal neurons in defined media and with chronic KCl depolarization, vs GFP control): inhibited axon outgrowth"
